What was measured:
[1] = target: T1, phosphorylated AfsR (phos-AfsR) (Streptomyces coelicolor, UniProt P25941); test: in vitro MangoIII transcription assay after preincubation; assay type: biochemical; details: 500 nM phosphorylated AfsR, 1 mM ATPγS preincubation; activator
T1 construct: full-length, 993 residues, pET28a (His-tagged), E. coli BL21(DE3); dephosphorylated, then phosphorylated in vitro by AfsKΔC (pS22, pT337, pS391, pT506, pS953 by MS), SEC

[2] = target: T2, AfsR (dephosphorylated AfsR) (Streptomyces coelicolor, UniProt P25941); test: as above; assay type: biochemical; details: 500 nM dephosphorylated AfsR, 1 mM ATPγS preincubation 10 min 30 °C, RNAP-σHrdB, RbpA, CarD; activator
T2 construct: full-length, 993 residues, pET28a (His-tagged), E. coli BL21(DE3), Ni-NTA and SEC; wild type treated with lambda phosphatase (E. coli protein carries pT337); mainly monomer
T2 sequence (P25941 whole entry): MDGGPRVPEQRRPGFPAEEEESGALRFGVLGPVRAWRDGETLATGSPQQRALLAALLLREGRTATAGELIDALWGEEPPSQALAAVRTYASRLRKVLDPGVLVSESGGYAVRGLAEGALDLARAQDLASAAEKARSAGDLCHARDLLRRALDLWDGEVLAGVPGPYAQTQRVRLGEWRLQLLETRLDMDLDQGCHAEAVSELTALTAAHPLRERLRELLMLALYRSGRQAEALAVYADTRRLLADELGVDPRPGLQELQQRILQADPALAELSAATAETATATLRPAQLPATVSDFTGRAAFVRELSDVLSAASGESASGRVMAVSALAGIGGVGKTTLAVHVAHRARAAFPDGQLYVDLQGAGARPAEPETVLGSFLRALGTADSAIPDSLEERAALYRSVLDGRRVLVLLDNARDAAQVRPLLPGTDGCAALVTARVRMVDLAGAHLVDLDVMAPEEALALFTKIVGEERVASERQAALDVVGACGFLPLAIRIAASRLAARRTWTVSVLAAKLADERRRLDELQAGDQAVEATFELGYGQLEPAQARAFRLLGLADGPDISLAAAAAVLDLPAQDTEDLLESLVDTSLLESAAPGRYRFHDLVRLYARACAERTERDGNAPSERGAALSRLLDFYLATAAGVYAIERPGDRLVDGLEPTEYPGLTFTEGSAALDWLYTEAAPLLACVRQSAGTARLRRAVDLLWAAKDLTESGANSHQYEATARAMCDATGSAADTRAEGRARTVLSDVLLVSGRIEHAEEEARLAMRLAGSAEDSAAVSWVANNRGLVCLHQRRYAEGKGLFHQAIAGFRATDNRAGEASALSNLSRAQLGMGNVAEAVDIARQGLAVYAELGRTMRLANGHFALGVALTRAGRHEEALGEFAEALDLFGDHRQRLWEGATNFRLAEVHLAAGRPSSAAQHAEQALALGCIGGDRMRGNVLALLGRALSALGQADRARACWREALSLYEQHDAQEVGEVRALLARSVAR

T1 sequence (P25941 whole entry): as above

Nc1ncnc2c1ncn2[C@@H]1O[C@H](COP(=O)(O)OP(=O)(O)OP(O)(O)=S)[C@@H](O)[C@H]1O [ATPγS] was tested, and the transcription activation [1] was “exhibits partial activation in response to non-hydrolysable ATPγS” and the transcription activation [2] was “comparable effect of preincubation with a non-hydrolyzable ATP analogue, ATPγS”.
